Assay results from publication PMC4147343, “Icotinib antagonizes ABCG2-mediated multidrug resistance, but not the pemetrexed resistance mediated by thymidylate synthase and ABCG2” (Oncotarget, 2014).
Residue numbers refer to the chain shown, from its start.

Experiments:
ABCG2 [1] = target: T1, ABCG2 (Homo sapiens, UniProt Q9UNQ0, R482G); experiment: [3H]-mitoxantrone accumulation in transfected cells ([…]); assay type: cell-based
T1 construct: full-length ABCG2 in transfected HEK293 cells (ABCG2-482-G2)
T1 sequence (Q9UNQ0 1-655 R482G): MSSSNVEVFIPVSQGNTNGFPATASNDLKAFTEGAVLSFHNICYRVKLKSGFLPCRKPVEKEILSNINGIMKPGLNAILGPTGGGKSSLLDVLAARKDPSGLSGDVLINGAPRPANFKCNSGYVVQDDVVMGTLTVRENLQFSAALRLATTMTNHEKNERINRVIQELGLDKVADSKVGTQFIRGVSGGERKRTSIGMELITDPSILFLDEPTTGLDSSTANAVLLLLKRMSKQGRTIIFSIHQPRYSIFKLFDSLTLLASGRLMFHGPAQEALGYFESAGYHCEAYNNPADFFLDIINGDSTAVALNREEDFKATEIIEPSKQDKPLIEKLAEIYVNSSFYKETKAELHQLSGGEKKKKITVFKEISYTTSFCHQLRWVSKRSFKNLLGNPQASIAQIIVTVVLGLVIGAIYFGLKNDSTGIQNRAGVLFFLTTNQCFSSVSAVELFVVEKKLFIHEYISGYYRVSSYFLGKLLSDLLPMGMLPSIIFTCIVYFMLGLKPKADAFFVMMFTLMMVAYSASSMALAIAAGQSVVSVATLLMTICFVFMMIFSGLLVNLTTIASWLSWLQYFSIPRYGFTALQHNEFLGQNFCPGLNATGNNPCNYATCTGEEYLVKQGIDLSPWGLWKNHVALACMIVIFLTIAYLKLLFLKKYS

ABCG2 [2] = target: T2, ABCG2 (Homo sapiens, UniProt Q9UNQ0); experiment: competition of […]-IAAP photoaffinity labeling in crude membranes; also ATPase stimulation ([…] of maximum at […]); assay type: binding
T2 construct: wild-type ABCG2 in crude membranes of MCF-7 FLV1000 cells
T2 sequence (Q9UNQ0 1-655): T1 sequence (Q9UNQ0 1-655 R482G) with G482R

- IC50 (ABCG2 [2]): 1.61 µM
SMILES: C#Cc1cccc(Nc2ncnc3cc4c(cc23)OCCOCCOCCO4)c1 [Icotinib]
- [3H]-mitoxantrone accumulation in transfected cells (1.0 and 5.0 μM) (ABCG2 [1]): significantly increased intracellular accumulation of [^3H]-MX in both the NCI-H460 and NCI-H460/MX20 cells, as well as the ABCG2-482-R2, ABCG2-482-G2
